Patent US20250161297A1, “COMPOSITIONS AND METHODS FOR INHIBITING FSP1” (THE REGENTS OF THE UNIVERSITY OF CALIFORNIA, priority 2022, published 2025)

Experiments:
NQO1 = target: T1, NQO1 (Homo sapiens, UniProt P15559); experiment: NQO1 CoQ oxidoreductase activity assay; type: biochemical
T1 construct: His6 (N); TEV cleavage site (N); made in house; host or cells: E. coli LOBSTR-BL21 (DE3)
Description: FSP1 and NQO1% Activity Curves: To measure in vitro activity of FSP1 and NQO1 for IC50 calculation, recombinant purified FSP1 and NQO1 were diluted in PBS. FSEN1 was dissolved and diluted in DMSO, and […] FSEN1 and 12.5 μL FSP1/NQO1 were mixed on an orbital shaker for 45 seconds at 450 rpm and incubated for 30 minutes in a NBS polystyrene 384-well plate (Corning Ref: 3640) at RT. NADH (Millipore Cat: 481913) was dissolved and diluted in PBS, and CoQ1 (Sigma-Aldrich SKU: C7956) was dissolved in DMSO and diluted in PBS. Diluted NADH and CoQ1 were combined into a 2×reaction mix and added to the plate wells to start the reaction. Final well volume was 25 μL, and final concentrations were 12.5n M FSP1, 400 µM CoQ1, 500 µM NADH, and 0.01-20 µM FSEN1. NADH Absorbance (355 nm) was measured as an inverse read-out of enzymatic product formation on a kinetic cycle with an interval time of 2.5 minutes at RT. All data was acquired using a Tecan infinite M1000. Raw data from 3 biological replicates were then plotted and initial slopes were calculated using a linear regression in prism (GraphPad), and all rates were normalized to vehicle (0 nM FSEN1) and No Protein controls where the highest and lowest slope values were used as 0 and 100%. […]

H460^C cells [1] = experiment: GPX4 inhibitor-induced cell death with FSEN1 co-treatment; type: cell-based
Description: (§1) For cell-based screen, cells were seeded in triplicate at a density of 500-750 cells per 50 μL per well in black 384-well plates (NUNC) and (Corning) 24 hr before start of imaging. After 24 hr, an additional 50 μL of drug infused medium containing 30 nM SYTOX Green Dead Cell Stain was carefully placed into the wells on top of existing medium. The plates were immediately transferred to an IncuCyte S3 imaging system (Essen Bioscience) enclosed in an incubator set to 37° C. and 5% CO2. One image per well were captured in the phase, green, and red channels every 1.5 or 3 hr over a 24 hr period, and the ratio of SYTOX Green-positive objects (dead cells) to SYTOX Green-positive plus Sg-SAFE mCherry-positive objects (total cells) was quantified using S3 image analysis software (Essen Bioscience). For each treatment condition, the SYTOX-to-′SYTOX+mCherry′-object ratio was plotted against the 24 hr imaging interval, the Area Under the Curve (AUC) was calculated and the average AUC was plotted using Prism (GraphPad). To calculate the half-maximal effective concentration (EC50) values, the AUC curve was fit to a variable slope function comparing response to drug concentration.
(§2) Synergy experiments: For cell-based synergy experiments, cells were seeded at a density of 750 cells per 25 μL per well in four black 384-well plates (Corning) 24 hr before start of imaging. After 24 hr, an additional 25 μL of drug infused medium containing 30 nM SYTOX Green Dead Cell Stain was carefully placed into the wells on top of existing medium. The plates were immediately transferred to an IncuCyte S3 imaging system (Essen Bioscience) enclosed in an incubator set to 37° C. and 5% CO2. One image per well were captured in the phase, green, and red channels every 4 hr over a 24 hr period, and the ratio of SYTOX Green-positive objects (dead cells) to SYTOX Green-positive plus Sg-SAFE mCherry-positive objects (total cells) was quantified using S3 image analysis software (Essen Bioscience). For each treatment condition, the SYTOX-to-′SYTOX+mCherry′-object ratio was plotted against the 24 hr imaging interval, the Area Under the Curve (AUC) was calculated, and the average AUC was plotted as a function of drug concentration (for example, RSL3) using Prism (GraphPad). To calculate the half-maximal effective concentration (EC50) values, the AUC curve was fit to a variable slope function comparing response to drug concentration.

H460^C FSP1KO cells = experiment: RSL3-, DHA- or FINO2-induced cell death in FSP1 knockout cells; type: cell-based
Description: as §1
Synergy experiments: For cell-based synergy experiments, cells were seeded at a density of 750 cells per 25 μL per well in four black 384-well plates (Corning) 24 hr before start of imaging. […]

[2] = test system: panel of cancer cell lines of various tissue origins; experiment: RSL3-induced cell death in a panel of cancer cell lines; type: cell-based; conditions: 1 μM FSEN1; lung, breast, liver, glial, bone, connective, lymphoid, skin lines
Description: as §1, with “concentration. […]” for “concentration.”

A549 lung cancer cells = experiment: RSL3-induced cell death in A549 cells; type: cell-based
Description: as §1, with “concentration. […]” for “concentration.”

A375 melanoma cells = experiment: cell death in A375 cells; type: cell-based
Description: as §1, with “concentration. […]” for “concentration.”

H460^C cells [3] = experiment: DHA- and FINO2-induced cell death with FSEN1 co-treatment; type: cell-based; conditions: 1 μM FSEN1
Description: as §1, §2

T1 sequence (P15559 2-274): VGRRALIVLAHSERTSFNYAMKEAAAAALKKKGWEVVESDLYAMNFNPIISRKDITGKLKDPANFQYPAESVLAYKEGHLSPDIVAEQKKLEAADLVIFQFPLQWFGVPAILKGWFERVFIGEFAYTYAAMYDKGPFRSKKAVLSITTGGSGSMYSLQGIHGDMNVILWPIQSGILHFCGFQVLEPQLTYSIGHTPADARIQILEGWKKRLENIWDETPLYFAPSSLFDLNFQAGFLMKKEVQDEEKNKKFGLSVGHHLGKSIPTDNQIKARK

Q: `COc1ccc(N2CCN(Cc3cn4c(-c5ccc(Br)cc5)nnc4s3)CC2)cc1` [FSEN1] was tested. Which “effect on the CoQ oxidoreductase activity of NQO1” value (NQO1) did it give?
A: no effect

Q: And the “sensitization to GPX4 inhibitors RSL3 and ML162” value (H460^C cells [1])?
A: sensitized

Q: And the “additional sensitizing effect to DHA and FINO2 induced cell death” value (H460^C FSP1KO cells; FSP1KO cells)?
A: no additional sensitizing effect

Q: What about the “additional sensitization to RSL3-induced cell death” value (H460^C FSP1KO cells; H460^C FSP1KO cells) of the same molecule?
A: did not result in any additional sensitization

Q: What about the “sensitization to RSL3-induced ferroptosis” value [2] of the same molecule?
A: sensitized all cancer cells

Q: What about the “sensitizing effect on ferroptosis induction” value (A549 lung cancer cells) of the same molecule?
A: particularly large sensitizing effect

Q: And the “ferroptosis in the absence of an RSL3 co-treatment” value (A375 melanoma cells)?
A: induced a small amount of ferroptosis

Q: What about the “sensitization to cell death induced by DHA and FINO2” value (H460^C cells [3]) of the same molecule?
A: strongly sensitized
